Assay results from patent publication US12263198B1, “Compositions and methods of improving ruminant performance” (Ralco Nutrition, Inc., priority 2021, dated 2025).
Marks after values point to notes of the source that are not given here.

Test system: rumen fluid
Assay: ANKOM artificial rumen system, dry matter digestibility of hay
Type: cell-based, steers
Details: 24 hours
Description: This study was conducted to evaluate the feed additive composition in an ANKOM artificial rumen system to compare digestibility of a feed additive of a cobalt lactate/yeast blend, relative to a feed additive of only cobalt lactate and a feed additive of only yeast. In each run, two cannulated steers were used to collect rumen fluid from the two steers at the Ralco Beef Research Farm in Marshall, MN. The rumen fluid was mixed with a buffer solution along with a different feed additive composition in each of three jars and a fourth jar having a control with no treatment. Eight runs were performed at differing amounts of cobalt lactate, yeast, and blends of cobalt lactate and yeast, as shown in each of the tables below. The cobalt lactate used in Runs 1-8 was Microbial Catalyst® from Ralco. The yeast used in Runs 1-8 was Emprove MX from Emmert.
Dacron bags with hay (Barley straw, DM 94.2, CP 5.4, ADF 54.15, NDF 75.6, Neg/cwt 17.7 and Nem/cwt 42.5 respectively) samples were then added to each jar, the jar was purged with CO2 and incubated for 24 hours at 39.5 degrees C. At the end of the 24 hours, the bags were removed, washed with clear tap water and run through the ANKOM fiber analyzer. At that point, the bags were dried and re-weighed, and the weight entered into formulas to give a dry matter digestibility value.
In this study a similar analysis was performed as in Example 5. In this example, Formulation A (used in Runs 6-8) was compared to Product 1 (Diamond V XPC®) and Product 2 (Amaferm® from BioZyme). The protocol used in this example is the same as that provided above for Example 5.

In the case of `CC(O)C(=O)[O-].CC(O)C(=O)[O-].[Co+2]` (centres unmarked) [cobalt lactate], the DMD (Run 1, 3.0 g) is reported as 54.37^b, the DMD (Run 2, 6.0 g) is reported as 57.04^b and the DMD (Run 3, 3.0 g) is reported as 61.87^b. The DMD (Run 4, 3.0 g) was 61.83^c, the DMD (Run 5, 3.0 g) was 64.59^c and the DMD (Run 6, 3.0 g) was 62.41^c. The DMD (Run 7, 3.0 g) was 62.17^b and the DMD (Run 8, 3.0 g) was 66.71^c.
